# Active and inactive are the calls of the source. The rule behind the calls is not given here.
# What was measured:
# [1] = target: Acetylcholinesterase (Electrophorus electricus) (UniProt O42275); test: Inhibition of Electrophorus electricus AChE at 10 uM pre-incubated for 5 mins before acetylthiocholine iodide substrate addition by Ellman's method
# [2] = target: Cholinesterase (Equus caballus) (UniProt P81908); test: Inhibition of equine serum BChE at 10 uM pre-incubated for 5 mins before butyrylthiocholineiodide substrate addition by Ellman's method
# Chain of Cholinesterase (Equus caballus) (P81908 whole entry): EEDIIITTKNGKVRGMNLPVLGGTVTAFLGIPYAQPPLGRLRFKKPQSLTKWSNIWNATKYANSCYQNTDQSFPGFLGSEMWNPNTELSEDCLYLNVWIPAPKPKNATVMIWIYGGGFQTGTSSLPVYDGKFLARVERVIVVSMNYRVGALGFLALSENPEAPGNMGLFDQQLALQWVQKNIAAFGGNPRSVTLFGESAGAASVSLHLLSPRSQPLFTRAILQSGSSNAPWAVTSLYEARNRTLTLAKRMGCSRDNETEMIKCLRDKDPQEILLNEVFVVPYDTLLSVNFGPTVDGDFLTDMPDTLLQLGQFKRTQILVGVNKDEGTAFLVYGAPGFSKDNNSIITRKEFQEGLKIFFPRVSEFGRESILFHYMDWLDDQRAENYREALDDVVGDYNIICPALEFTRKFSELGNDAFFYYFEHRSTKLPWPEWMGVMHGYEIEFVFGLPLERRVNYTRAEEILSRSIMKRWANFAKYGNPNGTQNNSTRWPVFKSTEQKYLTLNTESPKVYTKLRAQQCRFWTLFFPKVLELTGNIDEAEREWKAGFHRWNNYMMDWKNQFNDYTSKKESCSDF
# [3] = target: Acetylcholinesterase (Electrophorus electricus) (UniProt O42275); test: Mixed type inhibition of Electrophorus electricus AChE assessed as increase in enzyme Km at 5 to 80 nM pre-incubated for 5 mins before acetylthiocholine iodide substrate addition by Lineweaver-Burk plot
# [4] = target: Acetylcholinesterase (Electrophorus electricus, UniProt O42275)
# Chain of Acetylcholinesterase (O42275 whole entry): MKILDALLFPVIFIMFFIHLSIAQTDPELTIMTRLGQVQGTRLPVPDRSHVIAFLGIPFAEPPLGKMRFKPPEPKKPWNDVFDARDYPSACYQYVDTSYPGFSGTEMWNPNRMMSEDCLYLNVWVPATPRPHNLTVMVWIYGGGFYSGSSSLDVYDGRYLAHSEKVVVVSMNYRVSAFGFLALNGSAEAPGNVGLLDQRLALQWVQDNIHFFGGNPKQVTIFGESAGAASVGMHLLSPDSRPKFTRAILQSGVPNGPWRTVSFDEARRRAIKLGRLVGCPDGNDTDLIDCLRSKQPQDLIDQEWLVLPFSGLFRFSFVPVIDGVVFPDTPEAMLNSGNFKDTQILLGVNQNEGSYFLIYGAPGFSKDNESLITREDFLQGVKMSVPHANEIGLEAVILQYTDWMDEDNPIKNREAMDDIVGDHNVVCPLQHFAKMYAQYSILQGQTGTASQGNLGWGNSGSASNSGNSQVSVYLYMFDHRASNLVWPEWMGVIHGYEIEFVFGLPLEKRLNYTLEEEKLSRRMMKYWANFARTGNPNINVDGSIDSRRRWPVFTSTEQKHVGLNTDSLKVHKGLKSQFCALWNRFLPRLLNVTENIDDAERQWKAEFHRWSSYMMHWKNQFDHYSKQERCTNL
# Description: Inhibition of Electrophorus electricus AChE pre-incubated for 5 mins before acetylthiocholine iodide substrate addition by Ellman's method
# [5] = target: Acetylcholinesterase (Electrophorus electricus) (UniProt O42275); test: Mixed type inhibition of Electrophorus electricus AChE assessed as reduction in enzyme Vmax at 5 to 80 nM pre-incubated for 5 mins before acetylthiocholine iodide substrate addition by Lineweaver-Burk plot
# [6] = target: Cholinesterase (Equus caballus, UniProt P81908)
# Chain of Cholinesterase (P81908 whole entry): as the sequence (P81908 whole entry) above
# Description: Inhibition of equine serum BChE pre-incubated for 5 mins before butyrylthiocholineiodide substrate addition by Ellman's method
# Chain of Acetylcholinesterase (Electrophorus electricus) (O42275 24-633 limits assumed): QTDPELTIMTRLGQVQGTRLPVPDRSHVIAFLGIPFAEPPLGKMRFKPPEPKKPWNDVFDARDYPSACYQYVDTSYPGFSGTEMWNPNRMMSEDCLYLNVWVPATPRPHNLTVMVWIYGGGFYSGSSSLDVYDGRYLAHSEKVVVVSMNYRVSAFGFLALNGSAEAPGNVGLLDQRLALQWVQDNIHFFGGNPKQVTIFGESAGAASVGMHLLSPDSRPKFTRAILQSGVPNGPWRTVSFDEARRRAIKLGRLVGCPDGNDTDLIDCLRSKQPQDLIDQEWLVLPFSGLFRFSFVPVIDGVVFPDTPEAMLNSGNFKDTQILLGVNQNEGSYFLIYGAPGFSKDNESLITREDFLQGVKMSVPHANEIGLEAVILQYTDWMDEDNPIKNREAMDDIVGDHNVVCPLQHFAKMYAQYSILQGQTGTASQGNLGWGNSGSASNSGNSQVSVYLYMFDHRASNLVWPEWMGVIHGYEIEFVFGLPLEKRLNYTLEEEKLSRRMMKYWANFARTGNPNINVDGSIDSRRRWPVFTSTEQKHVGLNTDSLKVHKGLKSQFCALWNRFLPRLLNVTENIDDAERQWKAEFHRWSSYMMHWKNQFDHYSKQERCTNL
compound,measurement,setting,value
Nc1nc(O)c2c(n1)CCC2,inhibition,[1],45.6%
same,inhibition,[2],45.8%
Nc1c(N)c2ccccc2oc1=O,inhibition,[1],8.33%
same,inhibition,[2],27.9%
Nc1ccc2nc3n(c(=O)c2c1)CCC3,inhibition,[1],59.2%
same,inhibition,[2],31.7%
Oc1nc(S)nc2c1CCCN2,inhibition,[1],68.3%
same,inhibition,[2],30.4%
O=c1c2ccccc2nc2n1CCCS2,inhibition,[1],59.2%
same,inhibition,[2],45%
Nc1c2c(nc3c1C1CCCCC1S3)CCCC2 (stereo not given),inhibition,[1],95.6%
same,inhibition,[2],98.8%
same,inhibition,[3],Active
same,IC50,[4],30 nM
same,inhibition,[5],Active
same,IC50,[6],330 nM
N#CCSc1nc(N)c2c3c(sc2n1)CCCC3,inhibition,[1],34.2%
same,inhibition,[2],65.4%
Nc1c2c(nc3sccc13)CCCC2,inhibition,[1],99.8%
same,inhibition,[2],98.2%
same,IC50,[4],260 nM
same,IC50,[6],110 nM
Nc1nc(N)c2c(n1)CCC2,inhibition,[1],50.8%
same,inhibition,[2],46.7%
CCCCN1CCc2c1nc1ccc(Br)cc1c2N,inhibition,[1],90.6%
same,inhibition,[2],92.5%
same,IC50,[4],300 nM
same,IC50,[6],8920 nM
Oc1ccnc2ccccc12,inhibition,[1],32.5%
same,inhibition,[2],28.8%
CN1CCNc2nc3ccccc3nc21,inhibition,[1],26.1%
same,inhibition,[2],42.1%
CC1(C)CC(=O)c2c(nc3ccccc3c2N)C1,inhibition,[1],92.8%
same,inhibition,[2],85%
same,IC50,[4],7190 nM
same,IC50,[6],36200 nM
COc1ccc2nc(C(F)(F)F)c(C#N)c(N)c2c1,inhibition,[1],85%
same,inhibition,[2],35.4%
same,IC50,[4],690 nM
same,IC50,[6],30700 nM
O=C1c2ccccc2NC2=NCCCN12,inhibition,[1],26.7%
same,inhibition,[2],42.5%
O=c1c(Br)c[nH]c2cccnc12,inhibition,[1],28.3%
same,inhibition,[2],24.2%
Nc1c2c(nc3ccccc13)N(Cc1ccccc1)CC2,inhibition,[1],96.4%
same,inhibition,[2],99.8%
same,IC50,[4],740 nM
same,IC50,[6],2250 nM
CC(=O)c1c(C)nc2ccccc2c1N,inhibition,[1],96.9%
same,inhibition,[2],99.7%
same,inhibition,[3],Active
same,IC50,[4],320 nM
same,inhibition,[5],Active
same,IC50,[6],460 nM
Cc1cccc2c(N)c3c(nc12)N(C)CC3,inhibition,[1],89.7%
same,inhibition,[2],90.8%
same,IC50,[4],1150 nM
same,IC50,[6],15900 nM
CC(=O)c1oc2ccccc2c1N,inhibition,[1],13.3%
same,inhibition,[2],49.2%
Nc1c2c(nc3c4c(nn13)CCC4)CCC2,inhibition,[1],76.7%
same,inhibition,[2],59.2%
same,IC50,[4],7410 nM
same,IC50,[6],60900 nM
Nc1c2c(nc3c1CCC3)CCCC2 [IPIDACRINE],inhibition,[1],98.7%
same,inhibition,[2],99%
same,IC50,[4],170 nM
same,IC50,[6],70 nM
Nc1nc(N)c2c(Br)cccc2n1,inhibition,[1],76.9%
same,inhibition,[2],82.5%

# Reference: ChEMBL document CHEMBL3603767, “Discovery of new acetylcholinesterase inhibitors with small core structures through shape-based virtual screening” (Bioorg Med Chem Lett, 2015)
